# Data: ChEMBL document CHEMBL4011633, “Donepezil-Based Central Acetylcholinesterase Inhibitors by Means of a "Bio-Oxidizable" Prodrug Strategy: Design, Synthesis, and in Vitro Biological Evaluation” (J Med Chem, 2017)
# Activity calls are given as the source filed them. The rule behind the calls is not given here.
# Tests used:
# [1] = biological target: T1, Acetylcholinesterase (Homo sapiens, UniProt P22303); experiment: Inhibition of AChE in human erythrocytes using acetylthiocholine iodide as substrate preincubated for 5 mins followed by substrate addition measured every minute for 10 mins by Ellman's spectrophotometric method; assay type: cell-based
# [2] = biological target: T1, Acetylcholinesterase; experiment: Inhibition of AChE (unknown origin)
# [3] = Effective permeability of compound at pH 7.4 at 100 uM after 4 hrs by PAMPA; assay type: physicochemical; conditions: read-out: Peff
# [4] = test system: Mus musculus; experiment: Toxicity in CD1 mouse liver at 10 mg/kg, ip qd administered daily for 14 days by microscopic method; assay type: organism-based; conditions: in vivo, 336 h
# [5] = test system: Mus musculus; experiment: Toxicity in CD1 mouse brain at 10 mg/kg, ip qd administered daily for 14 days by macroscopic method; assay type: organism-based; conditions: in vivo, 336 h
# [6] = test system: Mus musculus; experiment: Toxicity in CD1 mouse assessed as mortality at 10 mg/kg, ip qd administered daily for 14 days; assay type: organism-based; conditions: in vivo, 336 h
# [7] = (§1) Prodrug activation in 2% PBS NAD+ riboflavin at 25 uM assessed as (+/-)-1-[(3-Chlorophenyl)methyl]-4-[(5,6-dimethoxy-1-oxo-indan-2-yl)methyl]pyridin-1-ium-3-carboxamide Bromide formation after 180 mins in the presence of (+/-)-1-[(3-Chlorophenyl)methyl]-4-[(5,6-dimethoxy-1-oxo-indan-2-yl)methyl]pyridin-1-ium-3-carboxamide Bromide
# [8] = test system: Mus musculus; experiment: Toxicity in CD1 mouse assessed as change in spleen texture at 10 mg/kg, ip qd administered for 14 days by macroscopic method; assay type: organism-based; conditions: in vivo, 336 h
# [9] = as §1, with “10% methanolic silver nitrate” for “2% PBS NAD+ riboflavin”
# [10] = test system: Salmonella typhimurium; experiment: Genotoxicity in Salmonella typhimurium TA98 after 90 mins by Ames test; assay type: toxicity; conditions: salmonella enterica subsp. enterica serovar typhimurium, 1.5 h
# [11] = test system: Mus musculus; experiment: Toxicity in CD1 mouse brain at 10 mg/kg, ip qd administered daily for 14 days by microscopic method; assay type: organism-based; conditions: in vivo, 336 h
# [12] = as §1, with “PBS” for “PBS NAD+”
# [13] = test system: Brain; experiment: Prodrug activation in CD1 mouse brain at 10 mg/kg, ip qd after 24 hrs by LC-MS/MS analysis; assay type: organism-based; conditions: in vivo
# [14] = Prodrug activation in CD3OD solution assessed as (+/-)-1-[(3-Chlorophenyl)methyl]-4-[(5,6-dimethoxy-1-oxo-indan-2-yl)methyl]pyridin-1-ium-3-carboxamide Bromide formation at 10 mM after 4 to 10 mins in presence of DPPH radical solution by 1H NMR analysis
# [15] = test system: Salmonella typhimurium; experiment: Genotoxicity in Salmonella typhimurium TAMix after 90 mins by Ames test; assay type: toxicity; conditions: salmonella enterica subsp. enterica serovar typhimurium, 1.5 h
# [16] = as §1, with “pH 7.4” for “2%”, “buffer” for “NAD+ riboflavin”
# [17] = test system: Mus musculus; experiment: Toxicity in CD1 mouse heart at 10 mg/kg, ip qd administered daily for 14 days by macroscopic method; assay type: organism-based; conditions: in vivo, 336 h
# [18] = Antioxidant activity assessed as DPPH free radical scavenging after 40 mins incubation in dark; assay type: functional
# [19] = Toxicity in ip dosed CD1 mouse assessed as mortality administered as qd after 48 hrs; assay type: organism-based; conditions: in vivo
# [20] = as §1, with “0.1%” for “2%”
# [21] = test system: Brain; experiment: Prodrug activation in CD1 mouse brain at 10 mg/kg, ip qd administered daily for 14 days by LC-MS/MS analysis; assay type: organism-based; conditions: in vivo, 336 h
# [22] = test system: Mus musculus; experiment: Toxicity in CD1 mouse liver at 10 mg/kg, ip qd administered daily for 14 days by macroscopic method; assay type: organism-based; conditions: in vivo, 336 h
# [23] = test system: Mus musculus; experiment: Toxicity in CD1 mouse kidney at 10 mg/kg, ip qd administered daily for 14 days by microscopic method; assay type: organism-based; conditions: in vivo, 336 h
# [24] = test system: Mus musculus; experiment: Toxicity in CD1 mouse kidney at 10 mg/kg, ip qd administered daily for 14 days by macroscopic method; assay type: organism-based; conditions: in vivo, 336 h
# [25] = test system: Mus musculus; experiment: Toxicity in CD1 mouse heart at 10 mg/kg, ip qd administered daily for 14 days by microscopic method; assay type: organism-based; conditions: in vivo, 336 h
# [26] = test system: Mus musculus; experiment: Toxicity in CD1 mouse assessed as change in spleen texture at 10 mg/kg, ip qd administered for 14 days by microscopic method; assay type: organism-based; conditions: in vivo, 336 h
# [27] = biological target: Cholinesterase (Equus caballus, UniProt P81908)
# Description: Inhibition of equine serum BChE using butyrylthiocholine iodide as substrate preincubated for 5 mins followed by substrate addition measured every minute for 10 mins by Ellman's spectrophotometric method
# [28] = Selectivity index, ratio of IC50 for equine serum BChE to IC50 for AChE in human erythrocytes; assay type: cell-based
# [29] = biological target: T1, Acetylcholinesterase; experiment: Inhibition of human recombinant AChE-induced human amyloid beta (1 to 40 residues) aggregation at 100 uM after 24 hrs by thioflavine T fluorescence method
# [30] = biological target: Amyloid-beta precursor protein (Homo sapiens) (UniProt P05067); experiment: Inhibition of amyloid beta (1 to 42 residues) (unknown origin) self-aggregation at 10 uM measured every 5 mins by ThT-fluorescence assay
# [31] = test system: SH-SY5Y; experiment: Cytotoxicity against human SH-SY5Y cells assessed as […] in cell viability at 0.1 to 1 mM after 24 hrs by fluorescence assay; assay type: cell-based; conditions: 1000 µM
# Cholinesterase, sequence (P81908 whole entry): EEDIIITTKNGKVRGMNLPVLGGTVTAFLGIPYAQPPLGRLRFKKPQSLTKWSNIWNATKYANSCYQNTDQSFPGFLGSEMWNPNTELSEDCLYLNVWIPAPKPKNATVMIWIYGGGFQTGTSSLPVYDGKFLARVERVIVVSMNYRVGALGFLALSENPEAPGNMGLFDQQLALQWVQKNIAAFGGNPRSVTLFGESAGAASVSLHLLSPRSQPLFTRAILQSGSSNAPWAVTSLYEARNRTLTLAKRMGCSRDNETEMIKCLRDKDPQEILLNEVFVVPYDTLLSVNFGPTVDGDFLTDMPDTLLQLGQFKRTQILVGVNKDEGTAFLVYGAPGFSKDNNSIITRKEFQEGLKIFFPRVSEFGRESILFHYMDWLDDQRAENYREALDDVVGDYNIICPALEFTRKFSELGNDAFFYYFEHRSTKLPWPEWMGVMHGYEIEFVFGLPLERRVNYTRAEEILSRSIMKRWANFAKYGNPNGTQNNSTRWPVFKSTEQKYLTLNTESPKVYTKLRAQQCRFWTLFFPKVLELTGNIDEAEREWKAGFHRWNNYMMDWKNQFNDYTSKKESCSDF
# T1 sequence (P22303 whole entry): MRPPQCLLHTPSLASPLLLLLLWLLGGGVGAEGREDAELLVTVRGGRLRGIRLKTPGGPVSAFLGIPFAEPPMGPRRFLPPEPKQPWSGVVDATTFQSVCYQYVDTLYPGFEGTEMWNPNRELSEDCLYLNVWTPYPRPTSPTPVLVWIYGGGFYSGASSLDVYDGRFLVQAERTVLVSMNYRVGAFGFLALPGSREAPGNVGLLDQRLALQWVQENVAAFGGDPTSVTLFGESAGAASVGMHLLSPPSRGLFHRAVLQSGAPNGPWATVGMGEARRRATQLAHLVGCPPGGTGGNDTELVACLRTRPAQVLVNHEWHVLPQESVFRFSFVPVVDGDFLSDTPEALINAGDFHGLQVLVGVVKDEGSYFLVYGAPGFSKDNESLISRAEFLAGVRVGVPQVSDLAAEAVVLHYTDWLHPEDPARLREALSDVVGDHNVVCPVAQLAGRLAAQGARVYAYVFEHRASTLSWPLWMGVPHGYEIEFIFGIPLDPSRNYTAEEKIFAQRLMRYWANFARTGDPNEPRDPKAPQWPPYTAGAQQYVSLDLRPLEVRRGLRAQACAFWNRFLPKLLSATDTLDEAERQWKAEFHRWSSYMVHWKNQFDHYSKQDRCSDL
# Amyloid-beta precursor protein (Homo sapiens), sequence (P05067 whole entry, the tested form may be a part): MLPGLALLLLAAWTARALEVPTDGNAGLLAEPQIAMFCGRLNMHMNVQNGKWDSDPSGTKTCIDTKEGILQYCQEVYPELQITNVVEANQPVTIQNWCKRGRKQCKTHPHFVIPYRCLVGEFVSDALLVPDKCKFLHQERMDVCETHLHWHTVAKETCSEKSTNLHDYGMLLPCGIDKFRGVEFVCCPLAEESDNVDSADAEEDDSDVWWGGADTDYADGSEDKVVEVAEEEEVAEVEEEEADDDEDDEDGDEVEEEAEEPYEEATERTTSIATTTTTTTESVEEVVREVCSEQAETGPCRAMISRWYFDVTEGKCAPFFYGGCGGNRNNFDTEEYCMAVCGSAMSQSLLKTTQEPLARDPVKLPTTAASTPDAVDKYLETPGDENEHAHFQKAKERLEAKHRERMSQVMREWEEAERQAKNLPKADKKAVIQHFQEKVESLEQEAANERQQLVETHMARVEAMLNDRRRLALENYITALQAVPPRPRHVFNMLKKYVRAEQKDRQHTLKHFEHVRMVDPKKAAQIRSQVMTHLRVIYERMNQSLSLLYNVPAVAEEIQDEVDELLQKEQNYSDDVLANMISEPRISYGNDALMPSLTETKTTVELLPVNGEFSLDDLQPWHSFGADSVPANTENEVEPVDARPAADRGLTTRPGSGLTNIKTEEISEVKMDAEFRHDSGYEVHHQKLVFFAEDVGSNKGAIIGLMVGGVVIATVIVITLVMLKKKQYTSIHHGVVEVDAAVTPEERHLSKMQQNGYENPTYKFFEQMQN
structure (smiles),measurement,setting,value
COc1cc2c(cc1OC)C(=O)C(CC1C=CN(Cc3ccccc3C)C=C1C(N)=O)C2 (stereo not given),IC50,[1],> 1 µM
COC(=O)c1cc2c(OC(=O)N(C)C)cccc2[n+](C)c1,IC50,[2],0.02 µM
CC(=O)C1=CN(Cc2ccccc2C)C=CC1CC1Cc2cc3c(cc2C1=O)OCO3 (stereo not given),IC50,[1],> 1 µM
same,"Papp at 4 h, 100 µM",[3],14.3 ×10⁻⁶ cm/s
COC(=O)C1=CN(C)c2cccc(OC(=O)N(C)C)c2C1,IC50,[2],> 1000 µM
CC(=O)C1=CN(Cc2ccccc2C)C=CC1CC1Cc2cc(C)ccc2C1=O (stereo not given),IC50,[1],> 1 µM
CC(=O)C1=CN(Cc2ccccc2C)C=CC1CC1Cc2cc(Cl)ccc2C1=O (stereo not given),IC50,[1],> 1 µM
COc1ccc2c(c1)CC(CC1C=CN(Cc3ccccc3C)C=C1C(C)=O)C2=O (stereo not given),IC50,[1],> 1 µM
same,"Papp at 4 h, 100 µM",[3],14.8 ×10⁻⁶ cm/s
COc1cc2c(cc1OC)C(=O)C(CC1C=CN(Cc3cccc(Cl)c3)C=C1C(N)=O)C2 (stereo not given),Activity,[4],Non-Toxic
same,Activity,[5],Non-Toxic
same,Activity,[6],Non-Toxic
same,Drug metabolism,[7],39.6%
same,Activity,[8],Non-Toxic
same,Drug metabolism,[9],28%
same,Activity,[10],Non-Toxic
same,Activity,[11],Non-Toxic
same,Drug metabolism,[12],77.9%
same,Drug metabolism,[13],Metabolite_Notdetected
same,IC50,[1],> 1 µM
same,Drug metabolism,[14],Metabolite detected
same,Activity,[15],Non-Toxic
same,Drug metabolism,[16],1.6%
same,Activity,[17],Non-Toxic
same,EC50,[18],90 µM
same,"Papp at 4 h, 100 µM",[3],25.6 ×10⁻⁶ cm/s
same,LD50 at 48 h,[19],> 50 mg/kg
same,Drug metabolism,[20],2.9%
same,Drug metabolism,[21],Metabolite_Notdetected
same,Activity,[22],Non-Toxic
same,Activity,[23],Non-Toxic
same,Activity,[24],Non-Toxic
same,Activity,[25],Non-Toxic
same,Activity,[26],Non-Toxic
CNC(=O)c1c[n+](Cc2ccccc2)ccc1CC1Cc2cc(OC)c(OC)cc2C1=O (racemic),IC50,[1],> 1 µM
same,IC50,[27],4.77 µM
COc1cc2c(cc1OC)C(=O)C(Cc1cc[n+](Cc3ccccc3Cl)cc1C(C)=O)C2 (racemic),IC50,[1],0.018 µM
same,Ratio IC50,[28],106
same,IC50,[27],1.92 µM
COC(=O)c1c[n+](Cc2ccccc2)ccc1CC1Cc2cc(OC)c(OC)cc2C1=O (racemic),IC50,[1],0.0256 µM
same,Ratio IC50,[28],119
same,IC50,[27],3.06 µM
COc1cc2c(cc1OC)C(=O)C(Cc1cc[n+](Cc3ccccc3)cc1C#N)C2 (racemic),IC50,[1],0.00292 µM
CC(=O)c1c[n+](Cc2ccccc2C)ccc1CC1Cc2cc(C)ccc2C1=O (racemic),IC50,[1],0.091 µM
same,Ratio IC50,[28],41.9
same,IC50,[27],3.81 µM
CC(=O)c1c[n+](Cc2ccccc2C)ccc1CC1Cc2cc(C)c(C)cc2C1=O (racemic),IC50,[1],0.0277 µM
same,Ratio IC50,[28],6.95
COc1cc2c(cc1OC)C(=O)C(Cc1cc[n+](Cc3ccccc3C)cc1C(N)=O)C2 (racemic),IC50,[1],0.678 µM
same,IC50,[27],> 10 µM
COc1cc2c(cc1OC)C(=O)C(Cc1cc[n+](Cc3cccc(Cl)c3)cc1C(N)=O)C2.[Br-] (racemic),inhibition,[29],41%
same,Activity,[10],Non-Toxic
same,IC50,[1],0.041 µM
same,Activity,[15],Non-Toxic
same,"Papp at 4 h, 100 µM",[3],0.15 ×10⁻⁶ cm/s
same,LD50 at 48 h,[19],70 mg/kg
same,inhibition,[30],25%
same,IC50,[27],> 10 µM
same,Activity,[31],Non-Toxic
CNC(=O)c1c[n+](Cc2ccccc2C)ccc1CC1Cc2cc(OC)c(OC)cc2C1=O (racemic),IC50,[1],1 to 10 µM
COc1cc2c(cc1OC)C(=O)C(Cc1cc[n+](Cc3cccc(C)c3)cc1C(C)=O)C2 (racemic),IC50,[1],0.014 µM
same,Ratio IC50,[28],427
same,IC50,[27],5.99 µM
COc1ccc2c(c1)CC(Cc1cc[n+](Cc3ccccc3C)cc1C(C)=O)C2=O.[Br-] (racemic),"Papp at 4 h, 100 µM",[3],0.3 ×10⁻⁶ cm/s
same,Ratio IC50,[28],133
COC(=O)c1c[n+](Cc2ccccc2C)ccc1CC1Cc2cc(OC)c(OC)cc2C1=O (racemic),IC50,[1],0.0058 µM
same,Ratio IC50,[28],309
same,IC50,[27],1.79 µM
CC(=O)c1c[n+](Cc2ccccc2C)ccc1CC1Cc2cc(Cl)ccc2C1=O (racemic),Ratio IC50,[28],13.9
COc1cc2c(cc1OC)C(=O)C(Cc1cc[n+](Cc3cccc(Cl)c3)cc1C(C)=O)C2 (racemic),IC50,[1],0.00327 µM
same,Ratio IC50,[28],1020
CC(=O)c1c[n+](Cc2ccccc2C)ccc1CC1Cc2cc3c(cc2C1=O)OCO3 (racemic),Ratio IC50,[28],26.9
COc1cc2c(cc1OC)C(=O)C(CC1CCN(Cc3ccccc3)CC1)C2 (stereo not given) [DONEPEZIL],Activity,[18],inactive
same,LD50 at 48 h,[19],22.5 mg/kg
CCN(C)C(=O)Oc1cccc([C@H](C)N(C)C)c1 [RIVASTIGMINE],LD50 at 48 h,[19],6.2 mg/kg
